Entries after “also recorded” stand apart in the source; their conditions may differ.
Key:
[1] = biological target: E. coli Tat machinery (IMVs containing overproduced TatABC) (Escherichia coli, UniProt P69423+P69425+P69428); experiment: In vitro Tat transport assay of pre-SufI into IMVs, NADH as energy source; format: biochemical; details: for IC50: efficiency of NADH-dependent in vitro Tat transport of pre-SufI, IMVs A280 = 5; for effect on in vitro E. coli Tat transport: 90 nM pre-SufI, NADH, with and without 2.5 mM DTT; for outcome of NADH-dependent in vitro Tat transport screen (survival = visible inhibition of Tat transport): hit compound 20 μM, NADH 4 mM, 37°C 30 min
Protocol: To directly test for inhibition of Tat transport, a gel-based in vitro Tat transport assay was performed using pre-SufI, an authentic Tat precursor protein [7]. In short, this assay consists of incubating a Tat substrate and a Δψ-generating energy source with inverted membrane vesicles (IMVs) containing overproduced TatABC, digesting remaining external protein with a protease, and then analyzing via SDS-PAGE. This assay was run twice using NADH and ATP (if warranted) as energy sources to generate the necessary Δψ. NADH generates a Δψ using respiratory proteins (i.e., the NADH dehydrogenase and cytochrome bo3 ubiquinol oxidase complexes) and ATP generates a Δψ by reversal of ATP synthase. A true Tat inhibitor would survive both assays. In contrast, a respiration inhibitor is expected to reduce Tat transport when only one of the two energy sources is used (except for an ionophore).
Fig 8 Effect of Hits from the Local HTS on In Vitro Tat Transport. (A) Tat transport assays of pre-SufI using NADH to generate a Δψ. Inverted membrane vesicles (IMVs; A280 = 5.0), the fluorescent substrate pre-SufI-IAC^Atto565 (90 nM), and NADH (4 mM) were incubated at 37°C for 30 min with DMSO (control) or with hit compound (20 μM). Samples were treated with the protease proteinase K, run on SDS-PAGE, and analyzed by in-gel fluorescence imaging. Assays were run in duplicate. Band intensity corresponds to the amount of protein transported into the IMV lumen. The following 7 compounds survived this screen: 1^JS, 51^JS, 55^JS, 111^JS, 181^JS, 202^JS, and 140^JS (boxed in red). (B) Tat transport assays of pre-SufI using ATP to generate a Δψ. All 7 compounds surviving the screen in (A) were tested using a Tat transport assay performed identically to those in (A) except that ATP (1 mM) was used in place of NADH. Compound 55^JS was eliminated by this assay—the other 6 compounds survived (boxed in red). (C) Chemical structure of compound 55^JS, N-(4,7-Dioxo-4,7-dihydro-2,1,3-benzoxadiazol-5-yl)acetamide.
(§1) Isolation of inverted membrane vesicles (IMVs), Western blot analyses and purification of pre-SufI-IAC were performed as described previously. Western blots were performed using rabbit anti-mCherry antibodies (1:10,000 dilution) in the presence of 0.1% Triton X-100 and 0.1% Tween 20. The pre-SufI-IAC protein was labeled with Atto565 maleimide, and the resultant fluorescent protein, pre-SufI-IAC^Atto565, was used as a substrate for the in vitro Tat transport assays (A280 = 5.0), as described previously. The presence of a Δψ was determined by measuring oxonol VI fluorescence in presence of Tat^+ IMVs (A280 = 0.5), as described previously, except that the translocation buffer lacked BSA. Steady-state fluorescence spectra and fluorescence intensities of whole cells producing mCherry proteins were determined with an SLM-8100 spectrofluorometer.
(§2) Supplementary file pone.0149659.s003.tiff: S3 Fig IC50's for Hit Compound 181^JS. (A) The total cellular mCherry fluorescence (live cell assay; n = 1), (B) the in vitro NADH-dependent Tat transport efficiency of pre-SufI (n = 1), and (C) the maximum transmembrane electrical potential gradient (n = 1) were measured for a range of concentrations of compound 181^JS (S2E Fig). (D) SDS-PAGE gel showing in-gel fluorescence data used in (B). For (A), cells expressing spTorA-mCherry-SsrA were grown under Tat^++ conditions in a 384-well plate in the presence of 0, 0.08, 0.15, 0.3, 0.63, 1.25, 2.5, 5, 10, 20, or 40 μM compound 181^JS, as described for the HTS assay (see Methods). For (B) and (C), IMVs were incubated with the same concentrations of compound 181^JS prior to initiation of Tat transport and Δψ generation by the addition of NADH, as described previously. The red curves are best-fits using y = d + (100-d)/(1+(x/IC50)^b), where b is a slope factor and d is the high concentration asymptote. (TIFF) Click here for additional data file.

[2] = test system: electrical field gradient (Δψ) across IMVs; experiment: Δψ assay (oxonol VI fluorescence with IMVs); format: biochemical, Escherichia coli; details: for IC50: electrical field gradient, IMVs A280 = 0.5, NADH
Protocol: Hit compounds surviving the in vitro Tat transport assay screens could be general Δψ inhibitors (ionophores), as both NADH and ATP generate the Δψ necessary for Tat transport. Since our current assay to measure Δψ requires ~20 times more test compound than the Tat transport assays, we reserved this assay for last. The presence of a Δψ was determined by measuring oxonol VI fluorescence. For all 8 hit compounds that survived initial secondary screening, we tested their dose dependent effect on the Δψ, on NADH-dependent in vitro Tat transport efficiency, and on the fluorescence signal recovered from our primary HTS assay (live cell assay). […] Out of 22 independent assays by three different people, compound 18^NIH inhibited Tat transport 12 times. The conflicting results seem more likely to arise from differences in IMV preparations rather than decomposition of or impurities in the samples of compound 18^NIH.
as §1, §2

[3] = test system: Pseudomonas aeruginosa Tat machinery; set-up: method as in PMID 23006747; details: cited from earlier work

E. coli Tat machinery (IMVs containing overproduced TatABC), sequence (P69423 2-258): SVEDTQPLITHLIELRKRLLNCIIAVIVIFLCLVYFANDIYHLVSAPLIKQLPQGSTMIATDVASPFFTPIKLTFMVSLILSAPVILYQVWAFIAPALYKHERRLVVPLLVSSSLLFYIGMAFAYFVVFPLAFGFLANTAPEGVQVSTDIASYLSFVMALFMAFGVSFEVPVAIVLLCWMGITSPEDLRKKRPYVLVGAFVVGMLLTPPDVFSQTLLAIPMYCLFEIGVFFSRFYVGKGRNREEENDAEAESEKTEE
E. coli Tat machinery (IMVs containing overproduced TatABC), sequence (P69425 whole entry): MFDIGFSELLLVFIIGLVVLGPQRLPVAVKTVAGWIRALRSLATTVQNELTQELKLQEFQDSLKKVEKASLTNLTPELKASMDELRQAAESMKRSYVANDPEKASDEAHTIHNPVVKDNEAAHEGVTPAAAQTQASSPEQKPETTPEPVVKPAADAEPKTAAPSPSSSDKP
E. coli Tat machinery (IMVs containing overproduced TatABC), sequence (P69428 whole entry): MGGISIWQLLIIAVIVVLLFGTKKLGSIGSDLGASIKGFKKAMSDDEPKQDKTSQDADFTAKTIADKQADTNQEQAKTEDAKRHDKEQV

N#CC1c2ccccc2-n2nncc2CN1Cc1cc(Cl)cc(Cl)c1 (stereo not drawn) [21^NIH, 5-[(3,5-dichlorophenyl)methyl]-4,6-dihydrotriazolo[1,5-a][1, 4]benzodiazepine-6-carbonitrile]
IC50 [1]: 50 µM | IC50 [2]: 4000 nM

Cc1ccc(S(=O)(=O)/C=C/C#N)cc1 [Bay 11–7082]
effect on in vitro E. coli Tat transport [1]: neither compound affected; also recorded: do not inhibit | activity on the Pseudomonas aeruginosa Tat machinery [3]: identified as inhibitors

N#CC(C#N)=NNc1ccccc1Br [Compound 1, [(2-bromophenyl)hydrazono]malononitrile]
outcome of NADH-dependent in vitro Tat transport screen (survival = visible inhibition of Tat transport) [1]: survived | IC50 [2]: 1000 nM

Oc1cc(Cl)ccc1Oc1ccc(Cl)cc1Cl [Compound 18^NIH, 5-Chloro-2-(2,4-dichlorophenoxy)phenol]
effect on the Δψ across IMVs [2]: did not collapse the Δψ | IC50 [2]: > 100000 nM

O=[N+]([O-])c1cc([N+](=O)[O-])c2ccccc2c1Cl [Compound 51, 1-chloro-2,4-dinitronaphthalene]
outcome of NADH-dependent in vitro Tat transport screen (survival = visible inhibition of Tat transport) [1]: survived | IC50 [2]: 8000 nM

Fc1nc(F)c(F)c(NNC(=S)Nc2cccc(C(F)(F)F)c2)c1F [Compound 111, 1-[(2,3,5,6-tetrafluoropyridin-4-yl)amino]-3-[(3-trifluoromethyl)phenyl]thiourea]
IC50 [1]: 0.7 µM | outcome of NADH-dependent in vitro Tat transport screen (survival = visible inhibition of Tat transport) [1]: survived | IC50 [2]: 100 nM

FC(F)(F)c1cccc(-c2cccc3cnccc23)c1 [Compound 140, 5-[3-(trifluoromethyl)phenyl]isoquinoline]
outcome of NADH-dependent in vitro Tat transport screen (survival = visible inhibition of Tat transport) [1]: survived | IC50 [2]: 1000 nM

O=C(Nc1cccc(C(F)(F)F)c1)Nc1ncc([N+](=O)[O-])s1 [Compound 181^JS, 1-(5-nitro-1,3-thiazol-2-yl)-3-[3-(trifluoromethyl)phenyl]urea]
outcome of NADH-dependent in vitro Tat transport screen (survival = visible inhibition of Tat transport) [1]: survived | IC50 [2]: 400 nM

O=[N+]([O-])c1ccc(O)c(-c2cccs2)c1 [Compound 202, 4-nitro-2-thiophen-2-ylphenol]
outcome of NADH-dependent in vitro Tat transport screen (survival = visible inhibition of Tat transport) [1]: survived | IC50 [2]: 3000 nM

O=C1C=CC(=O)N1c1ccccc1 [N-phenylmaleimide]
effect on in vitro E. coli Tat transport [1]: neither compound affected; also recorded: do not inhibit | activity on the Pseudomonas aeruginosa Tat machinery [3]: identified as inhibitors

Reference: PMC4764201, “High Throughput Screen for Escherichia coli Twin Arginine Translocation (Tat) Inhibitors” (PLoS ONE, 2016)
